In the assay the target is T1, human GPR139 (Homo sapiens, UniProt Q6DWJ6).
T1 construct: expressed in transfected cells; host or cells: CHO-TREx (Life Technologies) cells, expression induced with doxycycline
T1 sequence (Q6DWJ6 1-353): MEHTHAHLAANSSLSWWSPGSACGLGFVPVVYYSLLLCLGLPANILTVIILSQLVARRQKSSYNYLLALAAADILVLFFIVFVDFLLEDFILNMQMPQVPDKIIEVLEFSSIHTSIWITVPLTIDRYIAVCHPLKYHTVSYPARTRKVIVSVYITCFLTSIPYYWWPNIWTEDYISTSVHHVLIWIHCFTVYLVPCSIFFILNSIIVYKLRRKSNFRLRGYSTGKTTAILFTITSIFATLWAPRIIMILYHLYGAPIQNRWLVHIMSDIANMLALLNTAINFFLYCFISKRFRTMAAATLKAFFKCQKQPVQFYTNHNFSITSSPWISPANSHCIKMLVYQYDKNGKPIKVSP
The assay can be described thus: Inhibition rate of the amount of IP1 in GPR139-expressed CHO cells (inverse agonist assay, Test Example 2). The following applies: CHO, relative value, inhibition rate of Example Compound 2 in Test Example 1 defined as 100%. In kind it is cell-based. How it is done:
The measurement of IP1 was made using an IP-ONE HTFR assay kit (cis-bio) and CHO-TREx (Life Technologies) cells stably transfected with GPR139. The CHO-TREx cells expressed human GPR139 with a tetracycline-inducing element. The cells were cultured in a medium containing F12K and 10% tetracycline-free FBS, and the expression of human GPR139 was induced over the course of 17 hours under conditions of 37° C. and 5% CO2 in the presence of 2 μg/mL of doxycycline (Clontech, 631311) in the growth medium on the day before assay. On the day of the test, after the cells were washed with 10 mL of PBS, the cells were detached with TrypLE Express (Life Technologies) and centrifuged at 1,000 rpm to form pellets, and a cell suspension was then prepared using a stimulation buffer (cis-bio, included in the IP-ONE HTRF assay kit).
The compound was diluted with the stimulation buffer, and 4 μL was added to a 384-well white assay plate (Greiner). The cell suspension was added so that there were 2000 cells per well, and the assay plate was left to stand for 40 minutes at 37° C. Equal amounts of IP1-d2 and Ab-Crp solutions (both available from cis-bio, included in the IP-ONE HTRF assay kit) prepared with a lysis buffer (cis-bio, included in the IP-ONE HTRF assay kit) were mixed, and 4 μL was added to the assay plate and left to stand for one hour at room temperature. After the fluorescence strengths of two wavelengths were measured by the HTRF settings of Envision (PerkinElmer), the value of Ratio={(Signal 665 nm)/(Signal 615 nm)}×10000 was calculated.
Measurement of the Inhibition Rate of the Amount of IP1 in GPR139-Expressed CHO Cells (Inverse Agonist Assay)
The activities of the compounds of Examples 1 and 3 to 167 were expressed as relative values in Table 2 by measuring the inhibition rate of the amount of IP1 with the same method as in Test Example 1 and defining the inhibition rate of the amount of IP1 of Example Compound 2 in Test Example 1 as […].

Experimental findings from patent US12630534B2 (TAKEDA PHARMACEUTICAL COMPANY LIMITED, priority 2020, dated 2026) are described below.

Take `CCn1cc(Cn2ccn(-c3nc(NCC4(F)CCC4)cc(C(F)(F)F)c3F)c2=O)cn1` [Example 121, 1-[(1-ethyl-1H-pyrazol-4-yl)methyl]-3-[3-fluoro-6-{[(1-fluorocyclobutyl)methyl]amino}-4-(trifluoromethyl)pyridin-2-yl]-1,3-dihydro-2H-imidazol-2-one]: the inhibition – broadly, the relative decrease from the control value, in per cent – at 30 µM is 101%.

For the compound `CC(C)n1cc(Cn2ccn(-c3nc(NCC4(F)CCC4)cc(C(F)(F)F)c3F)c2=O)cn1` [Example 133, 1-[3-fluoro-6-{[(1-fluorocyclobutyl)methyl]amino}-4-(trifluoromethyl)pyridin-2-yl]-3-{[1-(propan-2-yl)-1H-pyrazol-4-yl]methyl}-1,3-dihydro-2H-imidazol-2-one], the inhibition at 30 µM worked out at 99%.

In the case of `CCn1cc(Cn2ccn(-c3cc(N4CCO[C@H](C)C4)cc(Cl)c3F)c2=O)cn1` [Example 32, 1-{3-chloro-2-fluoro-5-[(2R)-2-methylmorpholin-4-yl]phenyl}-3-[(1-ethyl-1H-pyrazol-4-yl)methyl]-1,3-dihydro-2H-imidazol-2-one], the inhibition at 30 µM is 98%.

In the case of `Cc1cn(Cc2cnn(C(C)C)c2)c(=O)n1-c1nc(N2CCOC(C)(C)C2)cc(C(F)(F)F)n1` [Example 135, 3-[4-(2,2-dimethylmorpholin-4-yl)-6-(trifluoromethyl)pyrimidin-2-yl]-4-methyl-1-{[1-(propan-2-yl)-1H-pyrazol-4-yl]methyl}-1,3-dihydro-2H-imidazol-2-one], the inhibition at 30 µM stood at 102%.

As to `CCn1cc(Cn2cc(C)n(-c3cc(N4CCO[C@H](C)C4)cc(C(F)(F)F)c3F)c2=O)cn1` [Example 4, 1-[(1-ethyl-1H-pyrazol-4-yl)methyl]-3-{2-fluoro-5-[(2R)-2-methylmorpholin-4-yl]-3-(trifluoromethyl)phenyl}-4-methyl-1,3-dihydro-2H-imidazol-2-one], the inhibition at 30 µM was 102%.

In the case of `CCn1cc(Cn2cc(C)n(-c3cc(OCC4CC4(F)F)cc(C(F)(F)F)c3)c2=O)cn1` (centres unmarked) [Example 22, 3-{3-[(2,2-difluorocyclopropyl)methoxy]-5-(trifluoromethyl)phenyl}-1-[(1-ethyl-1H-pyrazol-4-yl)methyl]-4-methyl-1,3-dihydro-2H-imidazol-2-one], the inhibition at 30 µM was found to be 100%.

In the case of `CCn1cc(Cn2cc(C)n(-c3cc(OCC(F)(F)F)cc(N4CCO[C@H](C)C4)c3)c2=O)cn1` [Example 72, 1-[(1-ethyl-1H-pyrazol-4-yl)methyl]-4-methyl-3-{3-[(2R)-2-methylmorpholin-4-yl]-5-(2,2,2-trifluoroethoxy)phenyl}-1,3-dihydro-2H-imidazol-2-one], the inhibition at 30 µM stood at 99%.

As for `CCn1cc(Cn2cc(C)n(-c3cc(-c4ccc(F)cc4)cc(C(F)(F)F)c3)c2=O)cn1` [Example 3, 1-[(1-ethyl-1H-pyrazol-4-yl)methyl]-3-[4′-fluoro-5-(trifluoromethyl)[1,1′-biphenyl]-3-yl]-4-methyl-1,3-dihydro-2H-imidazol-2-one], the inhibition at 30 µM was found to be 101%.

As to `CCn1cc(Cn2ccn(-c3cc(N4CCOC(C)(C)C4)cc(Br)c3F)c2=O)cn1` [Example 146, 1-[3-bromo-5-(2,2-dimethylmorpholin-4-yl)-2-fluorophenyl]-3-[(1-ethyl-1H-pyrazol-4-yl)methyl]-1,3-dihydro-2H-imidazol-2-one], the inhibition at 30 µM stood at 103%.

As for `CCn1cc(Cn2cc(C)n(-c3cc(Br)cc(N4CCO[C@H](C)C4)c3)c2=O)cn1` [Example 89, 3-{3-bromo-5-[(2R)-2-methylmorpholin-4-yl]phenyl}-1-[(1-ethyl-1H-pyrazol-4-yl)methyl]-4-methyl-1,3-dihydro-2H-imidazol-2-one], the inhibition at 30 µM amounted to 101%.

Consider `CCn1cc(Cn2ccn(-c3cc(N4CCOC(F)(F)C4)cc(C(F)(F)F)c3F)c2=O)cn1` [Example 40, 1-[5-(2,2-difluoromorpholin-4-yl)-2-fluoro-3-(trifluoromethyl)phenyl]-3-[(1-ethyl-1H-pyrazol-4-yl)methyl]-1,3-dihydro-2H-imidazol-2-one], for which the inhibition at 30 µM was 101%.
